Results reported in ChEMBL document CHEMBL6074689 (Eur J Med Chem, 2025).
Active and inactive are the calls of the source. The calls are words filed in the database; no cut-off is given here.

Tests used:
Acetylcholinesterase [1] = molecular target: T1, Acetylcholinesterase (Homo sapiens, UniProt P22303); assay: Inhibition of human recombinant AChE expressed in HEK293 cells using acetylthiocholine iodide as substrate preincubated with compound for 30 mins followed by substrate addition and measured after 30 mins by DTNB reagent based Ellman's method
Cholinesterase = Cholinesterase (Equus caballus, UniProt P81908); assay: Inhibition of equine serum BChE using acetylthiocholine iodide as substrate preincubated with compound for 30 mins followed by substrate addition and measured after 30 mins by DTNB reagent based Ellman's method
Acetylcholinesterase [2] = molecular target: T1, Acetylcholinesterase; assay: Displacement of propidium iodide from human AChE PAS assessed as reduction in fluorescence intensity at 5 uM incubated for 6 hrs by fluorescence based analysis relative to control; design: scale not given: the % may be the effect or the level left
Acetylcholinesterase [3] = molecular target: T1, Acetylcholinesterase; assay: Displacement of propidium iodide from human AChE PAS assessed as reduction in fluorescence intensity at 1 uM incubated for 6 hrs by fluorescence based analysis relative to control; design: scale not given: the % may be the effect or the level left
Acetylcholinesterase [4] = molecular target: T1, Acetylcholinesterase; assay: Displacement of propidium iodide from human AChE PAS assessed as reduction in fluorescence intensity at 0.1 uM incubated for 6 hrs by fluorescence based analysis relative to control; design: scale not given: the % may be the effect or the level left
Acetylcholinesterase [5] = molecular target: T1, Acetylcholinesterase; assay: Displacement of propidium iodide from human AChE PAS assessed as reduction in fluorescence intensity at 0.01 uM incubated for 6 hrs by fluorescence based analysis relative to control; design: scale not given: the % may be the effect or the level left
[6] = Antioxidant activity assessed as DPPH radical scavenging activity incubated for 30 mins; type: functional
PC-12 [7] = assay: Cytotoxicity against rat PC-12 cells assessed as cell viability upto 20 uM measured for 24 hrs by MTT assay; type: toxicity, cell-based; details: pc-12, 24 h
PC-12 [8] = assay: Neuroprotective activity against H2O2-induced oxidative stress in rat PC-12 cells assessed as cell viability at 1 to 20 uM preincubated with compound for 24 hrs and followed by H2O2 induction and measured after 24 hrs by MTT assay; type: functional, cell-based; details: dose 1-20 µM, time 48.0 hrs
PC-12 [9] = assay: Induction of apoptosis in rat PC-12 cells assessed as viable cells at 2.5 uM incubated for 24 hrs by Annexin V/PI staining based flow cytometry analysis (reference value: 82.8%); type: functional; details: read-out: Activity
PC-12 [10] = assay: Induction of apoptosis in rat PC-12 cells assessed as viable cells at 10 uM incubated for 24 hrs by Annexin V/PI staining based flow cytometry analysis (reference value: 82.8%); type: functional; details: read-out: Activity
PC-12 [11] = assay: Induction of apoptosis in rat PC-12 cells assessed as viable cells at 5 uM incubated for 24 hrs by Annexin V/PI staining based flow cytometry analysis (reference value: 82.8%); type: functional; details: read-out: Activity
PC-12 [12] = assay: Induction of apoptosis in rat PC-12 cells assessed as viable cells at 20 uM incubated for 24 hrs by Annexin V/PI staining based flow cytometry analysis (reference value: 82.8%); type: functional; details: read-out: Activity
[13] = Metal chelating activity assessed as compound-Fe2+ complex formation by measuring increase in absorption intensity at 300 uM in presence of by UV-vis spectrometry
[14] = Metal chelating activity assessed as compound-Cu2+ complex formation by measuring increase in absorption intensity at 300 uM in presence of by UV-vis spectrometry
[15] = Permeability of the compound across blood brain barrier; type: ADME; details: read-out: BBB
[16] = molecular target: Amyloid-beta precursor protein (Homo sapiens) (UniProt P05067); assay: Inhibition of amyloid beta (1 to 42) (unknown origin) self induced aggregation at 1.521 uM incubated for 72 hrs by ThT fluorescence based assay
[17] = molecular target: Amyloid-beta precursor protein (Homo sapiens) (UniProt P05067); assay: Inhibition of amyloid beta (1 to 42) (unknown origin) self induced aggregation at 1.521 uM incubated for 72 hrs by transmission electron microscopic analysis
[18] = Toxicity in Drosophila melanogaster Oregon R-positive assessed as reduction in eclosed flies at 40 uM measured for 15 days relative to control; design: scale not given: the % may be the effect or the level left; details: 360 h, time 15 day
[19] = Acute toxicity in Swiss albino mouse assessed as body weight gain at 175 mg/kg, po administered for 14 days; type: organism-based; details: in vivo, 336 h, time 14 day
Drosophila melanogaster [20] = assay: Anti-alzheimer activity in ey-GAL4 driven UAS-amyloid beta (1 to 42) induced Drosophila melanogaster Oregon R-positive assessed as fold increase in superoxide level at 10 uM by fluorescence based analysis; type: functional
Drosophila melanogaster [21] = assay: Inhibition of oxidative stress in y-GAL4 driven UAS-amyloid beta (1 to 42) induced Drosophila melanogaster Oregon R-positive assessed as fold increase in ROS level at 10 to 20 uM incubated for 30 mins by H2DCFDA staining based analysis; type: functional; details: dose 10-20 µM, 0.5 h
[22] = Acute toxicity in Swiss albino mouse assessed as animal survival at 175 mg/kg, po administered for 14 days; type: organism-based; details: in vivo, 336 h, time 14 day
[23] = Acute toxicity in Swiss albino mouse assessed as abnormal behavior at 175 mg/kg, po administered for 14 days; type: organism-based; details: in vivo, 336 h, time 14 day
[24] = Acute toxicity in Swiss albino mouse assessed as convulsion at 175 mg/kg, po administered for 14 days; type: organism-based; details: in vivo, 336 h, time 14 day
[25] = Acute toxicity in Swiss albino mouse assessed as tremor at 175 mg/kg, po administered for 14 days; type: organism-based; details: in vivo, 336 h, time 14 day
Mus musculus [26] = assay: (§1) Antialzheimer activity in scopolamine-induced Swiss albino mouse model assessed as decrease in escape latency at 0.3 to 0.5 mg/kg, po preincubated with compound for 30 mins followed by scopolamine induction and measured after 5 days by Morris water maze test; type: functional, organism-based; details: dose 0.3-0.5 mg/kg, time 7230.0 min
Mus musculus [27] = assay: as §1, with “improvement” for “decrease”, “memory retention by measuring time spent in platform quadrant” for “escape latency”; type: functional, organism-based; details: dose 0.3-0.5 mg/kg, time 7230.0 min
Mus musculus [28] = assay: Antialzheimer activity in scopolamine-induced Swiss albino mouse model assessed as reduction in AChE level at 0.3 to 0.5 mg/kg, po preincubated with compound for 30 mins followed by scopolamine induction and measured after 30 mins; type: functional, organism-based; details: dose 0.3-0.5 mg/kg, time 1.0 hrs
Mus musculus [29] = assay: Antialzheimer activity in scopolamine-induced Swiss albino mouse model assessed as reduction in BChE level at 0.3 to 0.5 mg/kg, po preincubated with compound for 30 mins followed by scopolamine induction and measured after 30 mins; type: functional, organism-based; details: dose 0.3-0.5 mg/kg, time 1.0 hrs
Mus musculus [30] = assay: Antioxidant activity against scopolamine-induced Swiss albino mouse model assessed as increase in SOD level at 0.3 to 0.5 mg/kg, po by absorbance based analysis; type: functional, organism-based; details: dose 0.3-0.5 mg/kg
Mus musculus [31] = assay: Antioxidant activity against scopolamine-induced Swiss albino mouse model assessed as increase in catalase level in brain at 0.3 to 0.5 mg/kg, po by absorbance based analysis; type: functional, organism-based; details: dose 0.3-0.5 mg/kg
Mus musculus [32] = assay: Antioxidant activity against scopolamine-induced Swiss albino mouse model assessed as increase in MDA level at 0.3 to 0.5 mg/kg, po by absorbance based analysis; type: functional, organism-based; details: dose 0.3-0.5 mg/kg
Mus musculus [33] = assay: Neuroprotective activity against scopolamine-induced Swiss albino mouse model assessed as increase in CREB1 mRNA level at 0.3 to 0.5 mg/kg, po measured after 6 days by RT-PCR analysis; type: functional, organism-based; details: dose 0.3-0.5 mg/kg, time 6.0 day
Mus musculus [34] = assay: Neuroprotective activity against scopolamine-induced Swiss albino mouse model assessed as increase in C-FOS mRNA level at 0.3 to 0.5 mg/kg, po measured after 6 days by RT-PCR analysis; type: functional, organism-based; details: dose 0.3-0.5 mg/kg, time 6.0 day
Mus musculus [35] = assay: Neuroprotective activity against scopolamine-induced Swiss albino mouse model assessed as increase in NR4A2 mRNA level at 0.3 to 0.5 mg/kg, po measured after 6 days by RT-PCR analysis; type: functional, organism-based; details: dose 0.3-0.5 mg/kg, time 6.0 day
Mus musculus [36] = assay: Neuroprotective activity against scopolamine-induced Swiss albino mouse model assessed as effect on GAP43 mRNA level at 0.3 to 0.5 mg/kg, po measured after 6 days by RT-PCR analysis; type: functional, organism-based; details: dose 0.3-0.5 mg/kg, time 6.0 day
Mus musculus [37] = assay: Neuroprotective activity against scopolamine-induced Swiss albino mouse model assessed as effect on PSD95 mRNA level at 0.3 to 0.5 mg/kg, po measured after 6 days by RT-PCR analysis; type: functional, organism-based; details: dose 0.3-0.5 mg/kg, time 6.0 day
Mus musculus [38] = assay: Neuroprotective activity against scopolamine-induced Swiss albino mouse model assessed as upregulation of PKA mRNA level at 0.3 to 0.5 mg/kg, po measured after 6 days by RT-PCR analysis; type: functional, organism-based; details: dose 0.3-0.5 mg/kg, time 6.0 day
Mus musculus [39] = assay: Neuroprotective activity against scopolamine-induced Swiss albino mouse model assessed as upregulation of MMP9 mRNA level at 0.3 to 0.5 mg/kg, po measured after 6 days by RT-PCR analysis; type: functional, organism-based; details: dose 0.3-0.5 mg/kg, time 6.0 day

T1 sequence (P22303 whole entry): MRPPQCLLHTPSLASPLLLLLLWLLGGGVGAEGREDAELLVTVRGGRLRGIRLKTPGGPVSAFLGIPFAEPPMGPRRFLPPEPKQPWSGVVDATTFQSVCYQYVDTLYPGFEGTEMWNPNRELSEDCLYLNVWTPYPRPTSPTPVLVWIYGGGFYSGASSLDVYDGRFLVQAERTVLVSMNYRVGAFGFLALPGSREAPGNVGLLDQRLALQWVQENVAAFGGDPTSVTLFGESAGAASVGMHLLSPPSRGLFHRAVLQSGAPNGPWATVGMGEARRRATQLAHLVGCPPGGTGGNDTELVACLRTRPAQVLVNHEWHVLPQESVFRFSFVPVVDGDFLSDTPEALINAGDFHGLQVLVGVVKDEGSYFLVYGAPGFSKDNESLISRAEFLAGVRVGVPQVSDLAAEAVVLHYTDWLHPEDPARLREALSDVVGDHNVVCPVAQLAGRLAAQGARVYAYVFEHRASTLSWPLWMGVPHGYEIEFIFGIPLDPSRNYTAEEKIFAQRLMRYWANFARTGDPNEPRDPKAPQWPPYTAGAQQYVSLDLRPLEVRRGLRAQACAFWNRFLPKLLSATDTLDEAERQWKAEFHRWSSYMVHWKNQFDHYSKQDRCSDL
Cholinesterase, sequence (P81908 whole entry): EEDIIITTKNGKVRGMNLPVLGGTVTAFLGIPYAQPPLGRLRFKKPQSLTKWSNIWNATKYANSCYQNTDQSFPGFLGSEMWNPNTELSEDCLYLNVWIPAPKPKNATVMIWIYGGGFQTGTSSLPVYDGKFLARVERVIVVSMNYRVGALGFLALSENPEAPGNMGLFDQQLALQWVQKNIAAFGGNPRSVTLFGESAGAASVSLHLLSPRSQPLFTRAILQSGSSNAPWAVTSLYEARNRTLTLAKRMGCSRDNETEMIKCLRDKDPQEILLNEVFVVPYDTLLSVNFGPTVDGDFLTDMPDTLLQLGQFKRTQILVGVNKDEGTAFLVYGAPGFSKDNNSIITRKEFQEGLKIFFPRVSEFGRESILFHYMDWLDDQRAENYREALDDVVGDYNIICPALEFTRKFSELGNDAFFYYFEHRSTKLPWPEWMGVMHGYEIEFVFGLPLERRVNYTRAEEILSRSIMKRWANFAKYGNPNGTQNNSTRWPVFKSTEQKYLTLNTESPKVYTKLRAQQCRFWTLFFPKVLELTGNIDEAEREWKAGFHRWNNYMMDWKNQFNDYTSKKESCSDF
Amyloid-beta precursor protein (Homo sapiens), sequence (P05067 whole entry): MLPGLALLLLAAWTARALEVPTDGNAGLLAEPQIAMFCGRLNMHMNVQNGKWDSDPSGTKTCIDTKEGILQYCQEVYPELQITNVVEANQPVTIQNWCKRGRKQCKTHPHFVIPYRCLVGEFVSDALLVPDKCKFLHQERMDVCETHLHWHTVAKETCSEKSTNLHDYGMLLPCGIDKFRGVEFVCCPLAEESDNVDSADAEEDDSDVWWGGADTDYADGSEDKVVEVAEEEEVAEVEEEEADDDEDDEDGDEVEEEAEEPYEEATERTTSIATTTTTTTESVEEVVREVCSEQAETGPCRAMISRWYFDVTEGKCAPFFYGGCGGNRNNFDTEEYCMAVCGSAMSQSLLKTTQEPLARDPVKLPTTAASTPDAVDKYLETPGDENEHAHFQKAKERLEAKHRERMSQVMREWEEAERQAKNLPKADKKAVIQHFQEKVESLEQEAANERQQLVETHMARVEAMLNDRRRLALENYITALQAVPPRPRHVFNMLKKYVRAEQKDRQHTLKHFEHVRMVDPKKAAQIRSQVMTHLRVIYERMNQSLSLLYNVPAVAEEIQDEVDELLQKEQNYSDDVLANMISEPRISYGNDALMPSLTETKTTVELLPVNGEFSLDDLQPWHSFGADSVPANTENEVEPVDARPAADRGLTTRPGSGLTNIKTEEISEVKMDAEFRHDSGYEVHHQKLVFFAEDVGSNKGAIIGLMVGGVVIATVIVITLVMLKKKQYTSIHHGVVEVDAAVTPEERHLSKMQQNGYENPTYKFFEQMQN

COc1ccc2[nH]cc(CCNC(=O)Oc3cccc(C(C)N(C)C)c3)c2c1 (stereo not drawn)
IC50 (Acetylcholinesterase [1]): 48.3 nM | IC50 (Cholinesterase): 13.6 nM

C[C@@H](c1cccc(OC(=O)NCCc2c[nH]c3ccc(O)cc23)c1)N(C)C
IC50 (Acetylcholinesterase [1]): 0.99 nM | IC50 (Cholinesterase): 27.8 nM | Activity (Acetylcholinesterase [2]): 26.2% | Activity (Acetylcholinesterase [3]): 18.3% | Activity (Acetylcholinesterase [4]): 5.56% | Activity (Acetylcholinesterase [5]): 3.54% | IC50 [6]: 22900 nM | Activity (PC-12 [7]): Non-toxic | Activity (PC-12 [8]): Active | viability at 2.5 µM (PC-12 [9]): 65.9% | viability at 10 µM (PC-12 [10]): 63.3% | viability at 5 µM (PC-12 [11]): 71.3% | viability at 20 µM (PC-12 [12]): 80.7% | Activity [13]: inactive | Activity [14]: inactive | Papp [15]: 11.5 ×10⁻⁶ cm/s | inhibition [16]: 100% | inhibition [17]: Active | Activity [18]: 9% | Activity [19]: Non-toxic | fold change (FC) (Drosophila melanogaster [20]): 1.25 | fold change (FC) (Drosophila melanogaster [21]): 1.8 | Activity [22]: Non-toxic | Activity [23]: Non-toxic | Activity [24]: Non-toxic | Activity [25]: Non-toxic | Activity (Mus musculus [26]): Active | Activity (Mus musculus [27]): Active | Activity (Mus musculus [28]): Active | Activity (Mus musculus [29]): Active | Activity (Mus musculus [30]): Active | Activity (Mus musculus [31]): Active | Activity (Mus musculus [32]): Active | Activity (Mus musculus [33]): Active | Activity (Mus musculus [34]): Active | Activity (Mus musculus [35]): Active | Activity (Mus musculus [36]): Active | Activity (Mus musculus [37]): Active | Activity (Mus musculus [38]): Active | Activity (Mus musculus [39]): Active

O=C1O[C@H]([C@@H](O)CO)C(O)=C1O [ASCORBIC ACID]
IC50 [6]: 3510 nM
